US20250099448A1, “HETEROCYCLIC COMPOUNDS” (Hoffmann-La Roche Inc., priority 2022, published 2025)

target: T1, MAGL protein (Homo sapiens, UniProt Q99685); assay: 2-AG assay: MAGL inhibitory activity by hydrolysis of 2-arachidonoylglycerol to arachidonic acid, followed by mass spectrometry; format: biochemical; settings: 8 μM 2-arachidonoylglycerol, 15 min preincubation, 30 min reaction at RT, RapidFire MS readout
T1 sequence (Q99685 1-303): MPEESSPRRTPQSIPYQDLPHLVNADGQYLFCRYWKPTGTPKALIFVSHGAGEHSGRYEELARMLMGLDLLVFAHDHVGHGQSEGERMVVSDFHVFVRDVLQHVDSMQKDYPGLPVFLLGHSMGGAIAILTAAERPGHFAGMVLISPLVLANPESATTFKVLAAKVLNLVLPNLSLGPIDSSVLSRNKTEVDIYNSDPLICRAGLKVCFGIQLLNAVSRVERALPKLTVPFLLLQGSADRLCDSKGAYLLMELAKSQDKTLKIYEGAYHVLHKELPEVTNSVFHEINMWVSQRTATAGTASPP
Summary of the method: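 Activity was measured by RapidFire SPE–triple-quad MS as the ratio of arachidonic acid to d8-arachidonic acid after 2-AG hydrolysis (8 μM substrate, 30 min, RT, acetonitrile quench). Compounds, tested from 12.5 μM down to […], were first preincubated 15 min with MAGL in TRIS/EDTA/Tween-20 buffer containing 2.5% DMSO.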

IC50 [nM] | SMILES
177 | O=C(N1CC(NCc2ccc(C(F)(F)F)cc2F)C1)N1CC2(CC(c3nnc(C4(O)CC4)[nH]3)C2)C1 [compound 198]
31.9 | O=C(N1CC(NCc2cc(Cl)ccc2C(F)(F)F)C1)N1CC2(CC(c3nnc(C4CC4)[nH]3)C2)C1 [compound 199]
69.7 | O=C(N1CC(N(Cc2ccc(C(F)(F)F)cc2F)C2CC2)C1)N1CC2(CC(c3nnc(C4CC4)[nH]3)C2)C1 [compound 200]
17 | O=C(N1CC(N(Cc2ccc(C(F)(F)F)cc2F)CC2CC2)C1)N1CC2(CC(c3nnc(C4CC4)[nH]3)C2)C1 [compound 201]
332 | O=C(N1CC(NS(=O)(=O)c2cccc(C(F)(F)F)c2)C1)N1CC2(CC(c3nnc(C4CC4)[nH]3)C2)C1 [compound 202]
363 | O=C(N1CC(NS(=O)(=O)c2ccc(C(F)(F)F)cc2F)C1)N1CC2(CC(c3nnc(C4CC4)[nH]3)C2)C1 [compound 203]
1360 | O=C(N1CC(NS(=O)(=O)C2CCC(F)(F)CC2)C1)N1CC2(CC(c3nnc(C4CC4)[nH]3)C2)C1 [compound 204]
155 | O=C(N1CC(NS(=O)(=O)c2cccc(OC(F)(F)F)c2)C1)N1CC2(CC(c3nnc(C4CC4)[nH]3)C2)C1 [compound 205]
232 | O=C(N1CC(NCc2ccc(C(F)(F)F)cc2F)C1)N1CC2(CC(c3nnc(C4CCC4)[nH]3)C2)C1 [compound 206]
60.3 | O=C(N1CC(n2cc(OCC(F)(F)F)cn2)C1)N1CC2(CC(c3nnc(C4CC4)[nH]3)C2)C1 [compound 207]
21.6 | O=C(N1CC(CNS(=O)(=O)c2cccc(C(F)(F)F)c2)C1)N1CC2(CC(c3nnc(C4CC4)[nH]3)C2)C1 [compound 208]
316 | O=C(N1CC(CNS(=O)(=O)c2ccc(C(F)(F)F)cc2)C1)N1CC2(CC(c3nnc(C4CC4)[nH]3)C2)C1 [compound 209]
482 | O=C(N1CC(CNS(=O)(=O)c2ccc(C(F)(F)F)cc2)C1)N1CC2(CC(c3nnc(C4(O)CC4)[nH]3)C2)C1 [compound 210]
136 | O=C(N1CC(CNS(=O)(=O)c2cccc(C(F)(F)F)c2)C1)N1CC2(CC(c3nnc(C4(O)CC4)[nH]3)C2)C1 [compound 211]
58.1 | CC(C)(C)CS(=O)(=O)N1CC2(CN(C(=O)N3CC4(CC(c5nnc(C6CC6)[nH]5)C4)C3)C2)C1 [compound 212]
45 | CC1(NS(=O)(=O)N2CC3(CN(C(=O)N4CC5(CC(c6nnc(C7CC7)[nH]6)C5)C4)C3)C2)CC1 [compound 213]
19.9 | O=C(N1CC2(CC(c3nnc(C4CC4)[nH]3)C2)C1)N1CC2(C1)CN(S(=O)(=O)NCc1ccc(F)cc1)C2 [compound 214]
17.4 | O=C(N1CC2(CC(c3nnc(C4CC4)[nH]3)C2)C1)N1CC2(C1)CN(S(=O)(=O)NC1(C(F)(F)F)CC1)C2 [compound 215]
11 | O=C(N1CC2(CC(c3nnc(C4CC4)[nH]3)C2)C1)N1CC2(C1)CN(S(=O)(=O)NCC1(C(F)(F)F)CC1)C2 [compound 216]
172 | O=C(N1CC2(CC(c3nnc(C4CC4)[nH]3)C2)C1)N1CC2(C1)CN(c1cnc(C(F)(F)F)cn1)C2 [compound 218]
923 | O=C(N1CC(CN2CCC(F)(F)CC2)C1)N1CC2(CC(c3nnc(C4CC4)[nH]3)C2)C1 [compound 219]

IC50 [nM] | SMILES
207 | O=C(N1CC2(CC(c3nnc(C4CC4)[nH]3)C2)C1)N1CC2(CC(N3CCS(=O)(=O)CC3)C2)C1 [compound 220]
8.51 | O=C(N1CC2(CC(NCC3(C(F)(F)F)CC3)C2)C1)N1CC2(CC(c3nnc(C4CC4)[nH]3)C2)C1 [compound 221]
40.7 | O=C(N1CC2(CC(NC(=O)C3(C(F)(F)F)CC3)C2)C1)N1CC2(CC(c3nnc(C4CC4)[nH]3)C2)C1 [compound 222]
0.33 | O=C(N1CC2(CC(NS(=O)(=O)c3ccc(C(F)(F)F)cc3)C2)C1)N1CC2(CC(c3nnc(C4CC4)[nH]3)C2)C1 [compound 223]
0.7 | O=C(N1CC2(CC(NS(=O)(=O)c3ccccc3C(F)(F)F)C2)C1)N1CC2(CC(c3nnc(C4CC4)[nH]3)C2)C1 [compound 224]
3.67 | CC(C)(C)CS(=O)(=O)NC1CC2(C1)CN(C(=O)N1CC3(CC(c4nnc(C5CC5)[nH]4)C3)C1)C2 [compound 225]
0.11 | O=C(N1CC(c2ccc(C3(C(F)(F)F)CC3)cc2)C1)N1CC2(CC(c3nnc(C4CC4)[nH]3)C2)C1 [compound 226]
0.91 | O=C(N1CC(c2ccc(C3(C(F)(F)F)CC3)cc2)C1)N1CC2(CC(c3nnc(C4(O)CC4)[nH]3)C2)C1 [compound 227]
14.8 | O=C(N1CC(c2ccc(C3(C(F)(F)F)CC3)cc2)C1)N1CC2(CC(c3nnc(C(O)C(F)(F)F)[nH]3)C2)C1 (stereo not shown) [compound 228]
3.39 | O=C(N1CC(c2ccc(C3(C(F)(F)F)CC3)nc2)C1)N1CC2(CC(c3nnc(C4CC4)[nH]3)C2)C1 [compound 231]
43.6 | O=C(N1CC(c2ccc(C3(C(F)(F)F)CC3)nc2)C1)N1CC2(CC(c3nnc(C4(O)CC4)[nH]3)C2)C1 [compound 232]
13.8 | O=C(N1CC(c2cnc(C3(C(F)(F)F)CC3)cn2)C1)N1CC2(CC(c3nnc(C4CC4)[nH]3)C2)C1 [compound 233]
139 | O=C(N1CC(c2ccc(C3(C(F)(F)F)CC3)nn2)C1)N1CC2(CC(c3nnc(C4CC4)[nH]3)C2)C1 [compound 234]
21.9 | O=C(N1CC(c2cnc(C3(C(F)(F)F)CC3)nc2)C1)N1CC2(CC(c3nnc(C4CC4)[nH]3)C2)C1 [compound 235]
4.52 | O=C(N1CC(c2ccc(C3(C(F)(F)F)CC3)cn2)C1)N1CC2(CC(c3nnc(C4CC4)[nH]3)C2)C1 [compound 236]
17.1 | O=C(N1CC2(CCN(S(=O)(=O)C34CC(C(F)(F)F)(C3)C4)CC2)C1)N1CC2(CC(c3nnc(C4CC4)[nH]3)C2)C1 [compound 237]
354 | O=C(N1CC2(CCN(S(=O)(=O)C34CC(C(F)(F)F)(C3)C4)CC2)C1)N1CC2(CC(c3nnc(C4(O)CC4)[nH]3)C2)C1 [compound 238]
842 | O=C(N1CC2(CCN(S(=O)(=O)C34CC(C(F)(F)F)(C3)C4)CC2)C1)N1CC2(CC(c3nnc(C4CCC4)[nH]3)C2)C1 [compound 239]
1.27 | O=C(N1CC2(CCN(S(=O)(=O)c3ccc(C(F)(F)F)cc3F)CC2)C1)N1CC2(CC(c3nnc(C4CC4)[nH]3)C2)C1 [compound 240]
0.24 | O=C(N1CC(c2ccc(OC(F)(F)F)c(F)c2)C1)N1CC2(CC(c3nnc(C4CC4)[nH]3)C2)C1 [compound 241]
2.23 | O=C(N1CC(c2ccc(OC(F)(F)F)c(F)c2)C1)N1CC2(CC(c3nnc(C4(O)CC4)[nH]3)C2)C1 [compound 242]

IC50 [nM] | SMILES
0.57 | O=C(N1CC(c2ccc(S(=O)(=O)C(F)(F)F)cc2)C1)N1CC2(CC(c3nnc(C4CC4)[nH]3)C2)C1 [compound 243]
7.96 | O=C(N1CC(c2ccc(CC(F)(F)F)cc2)C1)N1CC2(CC(c3nnc(C4(O)CC4)[nH]3)C2)C1 [compound 244]
50.2 | O=C(N1CC(c2nc(CC3(C(F)(F)F)CC3)no2)C1)N1CC2(CC(c3nnc(C4CC4)[nH]3)C2)C1 [compound 245]
66.8 | O=C(N1CC(c2noc(C3(C(F)(F)F)CC3)n2)C1)N1CC2(CC(c3nnc(C4CC4)[nH]3)C2)C1 [compound 246]
3.7 | CC(C)S(=O)(=O)c1ccc(C2CN(C(=O)N3CC4(CC(c5nnc(C6CC6)[nH]5)C4)C3)C2)c(Cl)c1 [compound 247]
676 | O=C(N1CCC(NS(=O)(=O)c2ccc(C(F)(F)F)cc2)CC1)N1CC2(CC(c3nnc(C4CC4)[nH]3)C2)C1 [compound 248]
1300 | O=C(N1CCC(NS(=O)(=O)c2ccc(F)cc2)CC1)N1CC2(CC(c3nnc(C4CC4)[nH]3)C2)C1 [compound 249]
41.5 | O=C(N1CCC(CNS(=O)(=O)c2ccc(C(F)(F)F)cc2)CC1)N1CC2(CC(c3nnc(C4CC4)[nH]3)C2)C1 [compound 250]
23.9 | O=C(N1CCC(CNS(=O)(=O)c2ccc(OC(F)(F)F)cc2)CC1)N1CC2(CC(c3nnc(C4CC4)[nH]3)C2)C1 [compound 251]
68.3 | O=C(N1CCC(CNS(=O)(=O)c2ccc(Cl)cc2)CC1)N1CC2(CC(c3nnc(C4CC4)[nH]3)C2)C1 [compound 252]
0.14 | O=C(N1CC(c2ccc(NCC3(C(F)(F)F)CC3)nc2)C1)N1CC2(CC(c3nnc(C4CC4)[nH]3)C2)C1 [compound 253]
1.25 | O=C(N1CC(c2ccc(NCC3(C(F)(F)F)CC3)nc2)C1)N1CC2(CC(c3nnc(C4(O)CC4)[nH]3)C2)C1 [compound 254]
0.68 | O=C(N1CC(c2cnc(NCC3(C(F)(F)F)CC3)cn2)C1)N1CC2(CC(c3nnc(C4CC4)[nH]3)C2)C1 [compound 255]
0.78 | O=C(N1CC(c2ccc(NCC3(C(F)(F)F)CC3)cn2)C1)N1CC2(CC(c3nnc(C4CC4)[nH]3)C2)C1 [compound 256]
0.08 | O=C(N1CC(c2ccc(NCC3(C(F)(F)F)CC3)cc2)C1)N1CC2(CC(c3nnc(C4CC4)[nH]3)C2)C1 [compound 257]
0.64 | O=C(N1CC(c2ccc(N3CC(C(F)(F)F)C3)nc2)C1)N1CC2(CC(c3nnc(C4CC4)[nH]3)C2)C1 [compound 258]
3.63 | O=C(N1CC(c2ccc(N3CC(C(F)(F)F)C3)nc2)C1)N1CC2(CC(c3nnc(C4(O)CC4)[nH]3)C2)C1 [compound 259]
19.7 | O=C(N1CC(c2ccc(N3CC(C(F)(F)F)C3)nc2)C1)N1CC2(CC(c3nnc(C4CCC4)[nH]3)C2)C1 [compound 260]
0.36 | O=C(N1CC(c2ccc(N3CC(C(F)(F)F)C3)cc2)C1)N1CC2(CC(c3nnc(C4CC4)[nH]3)C2)C1 [compound 261]
